This is an account of results in patent US20130136809A1, “7-HYRDROXYFRULLANOLIDE ITS ANALOGS FOR PREVENTION CONTROL AND TREATMENT OF METABOLIC DISORDERS” (LAILA NUTRACEUTICALS, priority 2009, published 2013).

The test system of one test is perilipin. In words: Immunoblot of perilipin expression in 3T3-L1 adipocytes. The conditions noted are these: 1 ug/ml; normalized with actin. The class given is cell-based, mouse. The procedure:
(§1) Experimental protocol: Mouse pre-adipocyte 3T3-L1 cells are maintained in Dulbecco's Modified Eagles Medium (DMEM) supplemented with 2 mM glutamine, 4.5 g/L glucose and 10% fetal bovine serum. Equal number of cells was plated in each well of 24-well culture plates. Cells were pre-treated separately with 1 μg/mL 7-hydroxyfrullanolide for 2 h and followed by addition of differentiation medium containing 500 nM insulin, 1.0 μM dexamethasone, and 0.5 mM isobutylmethylxanthine (IBMX) for 48 h. Thereafter, cells were further incubated with post differentiation medium (DMEM containing 100 nM insulin) in presence or absence of 7-HF. […] Protein content was measured in Bradford method by using Coomassie blue dye and cell lysates were stored in aliquots at −80° C. until further use. The modulation of adipocyte differentiation markers such as Peroxisome proliferator-activated receptor gamma (PPARγ), CD36, adipocyte fatty acid binding protein (aP2); and intracellular lipid droplet surface associated protein, perilipin expression were evaluated by immunoblot assay.
(§2) Inhibition of protein expression of biomarker molecules adipocytes in presence or absence of 7-hydroxyfrullanolide (7-HF) was evaluated in immunoblot assay. […] Band intensities were calculated densitometrically and normalized with expression of actin in respective samples.

Another test relates to CD36. In words: Immunoblot of CD36 expression in 3T3-L1 adipocytes. The class given is cell-based, mouse. The following applies: 1 ug/ml; normalized with actin. How it is done:
as §1, §2
Background: A western blot detects proteins with antibodies after separation by electrophoresis.

In test [1] the test system is 3T3-L1 pre-adipocyte cells. In words: Pro-lipolytic activity in differentiated adipocytes (free glycerol release). It is filed as cell-based, mouse. The following applies: 5 μg/mL; increase in glycerol release. How it is done: The lipolytic activity was assessed in mature adipocytes as per the procedure of Chemicon International, USA, by measuring free glycerol secreted into the culture medium. One hundred thousand 3T3-L1 […] pre-adipocyte cells in Dulbecco's Modified Eagles Medium (DMEM) containing 10% Fetal Bovine Serum (FBS) were taken into each well of a 24-well plate and incubated for 48 h at 37° C. and 5% CO2. The differentiation of pre-adipocyte cells was initiated in a differentiation medium containing 10 µg/ml insulin, 1.0 µM dexamethasone, and 0.5 mM isobutylmethylxanthine (IBMX). The cells were differentiated for 5 days and then the culture medium was removed. The monolayer was washed twice with wash solution (Hank's balanced salt solution), and then 250 µL of incubation solution (Hank's balanced salt solution plus 2% bovine serum albumin) was added to the wells in triplicate in presence or absence of 7-hydroxyfrullanolide or its analogs or the extracts containing 7-HF, and the cells were further incubated for 16 h. To measure lipolysis, 200 μL of free glycerol assay reagent was added to 25 µL of culture supernatants and controls containing glycerol standard. The samples and the controls were incubated for 15 min, and the absorbance was read at 540 nm. A standard curve constructed from the glycerol was used to calculate the concentration of free glycerol in the culture supernatants. The percentage increase in glycerol concentration in the sample solutions compared to the control containing the known concentrations of glycerol corresponds to the percentage acceleration of lipolysis by test compound.

The next test has as its system human endothelial cells. As to the kind of experiment: Nitrite assay (Griess reagent), nitric oxide production. The following applies: 0.1, 0.25, 0.50, 1.00 ng/ml; 24 h. The class given is cell-based. How it is done:
Equal number (5000 cells) of human endothelial cells was plated in each well of a 96-well cell culture plate. The cells were treated with various concentrations (0.1, 0.25, 0.5 and 1.0 ng/ml) of 7-HF for 24 h. The control cultures received 0.01% (v/v) DMSO as the vehicle. After 24 h, the culture supernatants were collected and mixed with equal volume of Griess reagent [1:1 mixture of NED solution (0.1% N-1-napthylethulenediamine dihydrochloride in water) and Sulfanylamide solution (1% sulfanilamide in 5% phosphoric acid)]. The reaction was allowed for 10 min at room temperature. Finally, the color reaction was read at 550 nm in a micro-plate reader (BioRad, USA). Known concentrations of sodium nitrite were reacted to obtain a standard curve. Modulation of nitrite production in 7-HF treated cultures was quantitatively assessed by extrapolating the absorbance readings obtained from the test samples into the standard plot.
For orientation: Griess reagent forms a coloured azo dye with nitrite.

The next test relates to PPARγ. As to the kind of experiment: Immunoblot of PPARγ expression in 3T3-L1 adipocytes. It is filed as cell-based, mouse. The conditions noted are these: 1 ug/ml; normalized with actin. How it is done:
as §1, §2

For test [2], the system named is J774 mouse macrophage cells. In words: Lipid accumulation in high glucose induced macrophage cells (in vitro model of atherosclerosis). The class given is cell-based. The following applies: 1 μg/ml; 600 mg/dL glucose, 5 days. How it is done:
Experimental protocol: This was evaluated in glucose induced J774, mouse macrophage cells. Briefly, the cells were cultured in DMEM with 2 mM Glutamine, 100 U/mL penicillin, […] streptomycin and 10% fetal bovine serum (Hyclone, Logan, Utah). Equal number of cells was seeded into 35 mm petri dishes (Corning, USA) one day before the experiment. The culture media was replaced with fresh, glucose free DMEM supplemented with 10% fetal bovine serum. 7-HF was diluted at […] and all cultures were pre-incubated for 2 hours at 5% CO2 at 37° C., and then incubated with 600 mg/dL of glucose for 5 days. Representative photomicrographs showing inhibition of lipid accumulation by 7-HF in high glucose induced macrophage cells of an in vitro model of atherosclerosis are shown in Figure IV. The control culture was supplemented with 100 mg/dL glucose. The cells were harvested and lysed with lysis buffer. Cell lysates were clarified at 14,000 g. Protein concentration was measured by Bradford method.

As to `C=C1C(=O)O[C@H]2C3=C(C)CCC[C@]3(C)CC[C@@]12O` [7-HF (1), 7-hydroxyfrullanolide], the perilipin protein expression result in the test on perilipin is reported as “down-regulation”. Besides, the CD36 protein expression result in the test with CD36 is recorded as “down-regulation”. In addition, the “% acceleration of lipolysis” value in test [1] is given as 47.8%. Besides, the “NO concentration (nitrite) in cell culture supernatant” value with human endothelial cells was “significant and dose dependent increase”. In addition, in the test with PPARγ, the PPARγ protein expression result is listed as “down-regulation”. The “lipid accumulation in high glucose induced macrophage cells” value in test [2] is “inhibited lipid accumulation”.
